Values after ≈ are worked out from the molar mass of the structure shown. Where two headings read alike, the source gives them in different places.

The source of these data is US12030908B2, “Antimicrobial compounds, compositions, and uses thereof” (Lakewood Amedex, Inc., priority 2017, dated 2024).

One data set is described as follows: pKa measurement. Particulars: read-out: pKa. It is filed as physicochemical.
The test system of a further data set is P. aeruginosa. The data set is described as follows: Broth microdilution MIC at incremental pH, P. aeruginosa. It is filed as cell-based. Particulars: Pseudomonas aeruginosa, read-out: MIC. The method, then: (§1) MIC testing is conducted using the broth (Mueller Hinton Broth) microdilution procedures relevant to each organism group as established by the Clinical and Laboratory Standards Institute (CLSI; 3-7). MIC plates are prepared in accordance with CLSI (3-7). To prepare the test plates, automated liquid handlers are used to conduct serial dilutions and liquid transfers. Automated liquid handlers utilized in this study include the Multidrop 384 (Labsystems, Helsinki, Finland) and the Biomek 2000 (Beckman Coulter, Fullerton CA). The solution is diluted to desired pH using 1 M Citric Acid or 1 M NaOH buffer. A standardized inoculum of each test organism is prepared per CLSI methods (3, 5-7) to equal a 0.5 McFarland standard in the appropriate media followed by an additional 1:20 dilution (1:10 for anaerobes).
(§2) The plates are then inoculated with 10 μL of the diluted 0.5 McFarland suspension using the Biomek 2000 from low to high drug concentration, resulting in a final concentration of approximately 5×10^5 CFU/mL per well. An un-inoculated plate is incubated for the purpose of assessing solubility of the drug in the test media. The plates are stacked 3 to 4 high, covered with a sterile lid on the top plate, and incubated for 18 to 24 hours according to CLSI. The MIC is recorded as the lowest concentration of respective compound that inhibited visible growth of the organism.
(Broth dilution looks for growth in wells or tubes with falling amounts of substance.)

The test system of data set [1] is wild type E. coli (ATCC 25922). The experiment in a line: Bacterial cytological profiling at pH 4, 5.5, 7 (Example 7), E. coli. Type of data set: cell-based. Particulars: pH 5.5 and 7. As for the experimental part:
(§3) This bacterial cytological profiling (BCP) investigation uses methods and materials described previously by Nonejuie, P., Burkart, M., Poglianoa, K., Pogiano, J. (2013). Bacterial cytological profiling rapidly identifies the cellular pathways targeted by antibacterial molecules. Proc. Natl. Acad. Sci. U.S.A. 110(40):16169-16174. doi: 10.1073/pnas.1311066110.
(§4) For viable cell counts, cells are grown to OD600≈0.4 and diluted 1:1 into buffered or unbuffered media containing various compound concentrations. Samples are then collected and serially diluted (1:10) on a 96 well plate. Five microliters from each well are spotted on LB plates, incubated at 30° C., and viable cells are counted the next day.
(§5) Samples are collected at 10, 30, 120, and 240 min of exposure for viable cell count and imaging. For imaging, E. coli and S. aureus 200 μL of treated cells per time point are stained with 0.8 μg/mL FM4-64, 1.5 μg/mL DAPI, and 0.4 μM SYTOXGreen (Molecular Probes/Invitrogen). P. aeruginosa samples are stained 0.4 μM SYTOX Green, 28 μg/mL DAPI, and 1 μg/mL FM 4-64. Cells are transferred to an agarose pad (20% LB, 1% agarose) for imaging.
(§6) For Nu-3 and Nu-8 stocks (at pH 4, 5.5 and 7), stock concentration is 500 mg/mL. For pH 4, the stocks are prepared by dissolving Nu-3 in 25 mM citrate buffer and Nu-8 in 350 mM citric acid. […]

Data set [2] relates to methicillin susceptible S. aureus (ATCC 29213). The data set is described as follows: Bacterial cytological profiling at pH 4, 5.5, 7 (Example 7), S. aureus. Type of data set: cell-based. Particulars: 125 mg/mL. As for the experimental part:
as §3, §4, §5, §6

For another data set, the system named is E. coli. The data set is described as follows: Broth microdilution MIC at incremental pH, E. coli. It is filed as cell-based. Particulars: Escherichia coli, read-out: MIC. The method, then: as §1, §2
For data set [3], the system named is Escherichia coli (strain CFT073, TPPS 1041). The data set is described as follows: Initial urinary tract infection model in BALB/c mice, transurethral treatment (Example 9). Particulars: 50 mg/kg transurethral 24 hr post-challenge; 60 minutes post-treatment. Type of data set: in vivo. The text has this: Female BALB/c mice (20-22 g) ordered from Envigo are acclimated to housing conditions and handled in accordance with Animal Use Protocol (AUP) number TP-08. Animals are fed irradiated Teklad Global 29 18 Rodent Diet and water ad libitum. Mice are housed 6/cage in static cages with irradiated ⅛″ Teklad corn cobbedding 7902 inside bioBubble® clean rooms that provide H.E.P.A filtered air into the bubble environment at 100 complete air changes per hour. The environment is controlled to a temperature range of 74°±4° F. and a humidity range of 30-70%. All procedures carried out in this experiment are conducted in compliance with the laws, regulations, and guidelines of the National Institutes of Health and with the approval of the TransPharm Preclinical Solutions Animal Care and Use Committee.
A clinical isolate of Escherichia coli (strain CFT073, TPPS 1041) are procured from the University of Michigan.
The organism is grown overnight at 37° C. in ambient atmosphere on trypticase soy agar plates supplemented with 5% sheep blood cells. The culture is aseptically swabbed and transferred to tubes of trypticase soy broth. The optical density is determined at 600 nm. The culture is diluted to provide an inoculum of approximately 7.5 log10 CFU per mouse in a volume of 30 μL. Instillation of the bacterial challenge constituted time 0 hour for the study. Inoculum counts are estimated before inoculation by optical density and confirmed after inoculation by dilution and back counts.
One hour prior to bacterial challenge, water is removed from animal cages. […]
The primary endpoint used to assess progress of the infection is mean bacterial burden per gram of urinary bladder tissue. […] Colony forming units (CFU) are enumerated and the total bacterial burden per gram of urinary bladder tissue homogenate is calculated.
The geometric mean CFU, along with standard error of the mean (SEM), are calculated using Microsoft Excel and bar charts are prepared for the data using GraphPad Prism v. […]

As to `COC1[C@@H](OP(=O)(O)OCCCCO)[C@@H](COP(=O)(O)OCCCCO)O[C@H]1n1ccc(=O)[nH]c1=O` (stereo partly shown) [Nu-2], the pKa (as a rule, the pH at which an ionisable group is half protonated) in “pKa measurement” is 2.3.

As for `CCCCOP(=O)(O)OC[C@H]1O[C@@H](n2cc(C)c(=O)[nH]c2=O)C[C@@H]1OP(=O)(O)OCCCC` [Nu-3], the MIC (commonly the smallest concentration in the dilution series that meets the test's criterion for growth inhibition) in the data set with P. aeruginosa (pH 1) is 12.5 mg/mL (≈ 24.3 mM); in the data set on P. aeruginosa (pH 3) it was more than 100 mg/mL; in the data set on P. aeruginosa (pH 5), more than 100 mg/mL; with P. aeruginosa (pH 7), more than 100 mg/mL; in the data set with E. coli (pH 1) it was 12.5 mg/mL (≈ 24.3 mM); with E. coli (pH 3), more than 100 mg/mL. The MIC in the data set with E. coli (pH 5) and with E. coli (pH 7) was more than 100 mg/mL throughout. The “effect on cell permeability, cell viability and growth” value in data set [1] is listed as “ineffective”. In addition, in data set [2], the cell growth entry is reported as “slight reduction in cell growth resembling that at pH 4 alone”.

In the case of `CCCCOP(=O)(O)OC[C@H]1O[C@@H](n2cc(C)c(=O)[nH]c2=O)C[C@H]1OP(=O)(O)OCCCC` [Nu-4], the pKa in the data set “pKa measurement” was determined as 2.3.

Consider `CCCCOP(=O)(O)OCCOCCOP(=O)(O)OCCCC` [Nu-5], for which the MIC was found to be 6.25 mg/mL (≈ 16.5 mM) in the data set on P. aeruginosa (pH 1); 100 mg/mL (≈ 264 mM) in the data set on P. aeruginosa (pH 3); 100 mg/mL (≈ 264 mM) in the data set with P. aeruginosa (pH 5); 100 mg/mL (≈ 264 mM) in the data set on P. aeruginosa (pH 7); 6.25 mg/mL (≈ 16.5 mM) in the data set with E. coli (pH 1); 100 mg/mL (≈ 264 mM) with E. coli (pH 3). Besides, the MIC in the data set with E. coli (pH 5) and in the data set with E. coli (pH 7) was 100 mg/mL (≈ 264 mM) each time. Also, the pKa in the data set “pKa measurement” amounted to 2.28.

As for gentamicin [reference compound], the “average bladder CFU burden” value in data set [3] is given as 6.1 log10 CFU.
